Laboratory results from paper PMC6465774 (Frontiers in Pharmacology, 2019).
Where a name gives a salt, the structure may show the parent alone.

Legend:
[1] = system: STZ treated diabetic and weight matched non-diabetic rats (paw pressure withdrawal threshold); conditions: rat, in vivo
respiratory functions = conditions: dose of 253 nmol/kg; ref our previous work; cited from earlier work
[2] = system: STZ treated diabetic rats with allodynia; conditions: rat, in vivo
[3] = system: gastric emptying in weight-matched control rats; conditions: 0.1 mg/kg s.c. 30 min before methylcellulose, weight-matched control animals, n = 7
Protocol: After 20 min the rats were sacrificed and the stomachs were removed after clamping the pylorus and cardia. […] Gastric emptying (%) was calculated as follows: [1 – (absorbance of sample / maximal absorbance)] × 100. Maximal absorbance was measured by processing the test meal alone, as described above.
In a separate experiment, weight match animals were treated either with saline, or with clonidine (0.1 mg/kg), an alpha2 adrenoceptor agonist and well-known inhibitor of gastric emptying, subcutaneously 30 min before the methylcellulose administration.

MOR = biological target: T1, MOR (Rattus norvegicus, UniProt P33535); test: [3H]DAMGO saturation binding in dorsal spinal cord membranes
T1 construct: incubating 50–100 μg of membrane protein of lumbar dorsal horn with 0.1- 4 nM; from tissue; host or cells: rat lumbar (L3-5) dorsal spinal cord / dorsal horn membranes, diabetic and control rats

[4] = system: STZ treated neuropathic rats; test: Antagonist effect of co-administered NAL-M on the antiallodynic effect of s.c. opioids (DPA); format: in vivo, rat
STZ treated animals = system: STZ treated animals; set-up: method as in Yamamoto et al., 2009; conditions: doses up to 10 mg/kg (approximately 31 μmol/kg), 7 weeks following STZ treatment; ref Yamamoto et al., 2009; cited from earlier work

T1 sequence (P33535 whole entry): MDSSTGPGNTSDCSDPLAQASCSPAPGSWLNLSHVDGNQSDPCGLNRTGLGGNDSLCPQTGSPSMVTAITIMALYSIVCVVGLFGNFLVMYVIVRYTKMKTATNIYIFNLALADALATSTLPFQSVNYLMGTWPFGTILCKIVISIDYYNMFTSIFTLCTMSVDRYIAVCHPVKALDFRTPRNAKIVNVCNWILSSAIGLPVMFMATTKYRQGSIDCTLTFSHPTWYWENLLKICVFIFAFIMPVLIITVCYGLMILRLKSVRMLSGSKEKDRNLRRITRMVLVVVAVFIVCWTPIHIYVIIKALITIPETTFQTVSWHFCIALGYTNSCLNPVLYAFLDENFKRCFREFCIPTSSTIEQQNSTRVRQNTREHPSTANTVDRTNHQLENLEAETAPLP

Row | SMILES | ED30 (effective dose producing 30% effect), diabetic animals ([1]; sc) | ED30 (effective dose producing 30% effect), non-diabetic animals ([1]; sc) | dose inducing significant antinociceptive action in naïve (weight matched) rats ([1]; sc) | time of peak antinociceptive effect ([1]; sc) | antiallodynic effect at 12th week of diabetes at the lowest antiallodynic dose [2] | lowest dose that significantly attenuated the allodynia (lowest antiallodynic dose) ([2]; sc) | other results
1 | CO[C@@]12C=C[C@H](OS(=O)(=O)O)[C@@H]3Oc4c(O)ccc5c4[C@@]31CCN(C)[C@@H]2C5 [14-O-MeM6SU, 14-O-methylmorphine-6-O-sulfate] | 434 nmol/kg | 335 nmol/kg | 506 nmol/kg | 60 min | produced antiallodynic effects | 253 nmol/kg | times higher potency than morphine in diabetic conditions based on ED30 values [1]: 48 times; antinociceptive action in naïve rats at 253 nmol/kg ([1]; sc): failed to show any significant antinociceptive action; respiratory depression (respiratory functions): no respiratory depression; antiallodynic action in diabetic rats, all tested doses ([2]; sc): significantly ameliorated the allodynia
2 | Clc1cccc(Cl)c1N=C1NCCN1 [clonidine, clonidine-hydrochloride] |  |  |  |  |  |  | gastric emptying [3]: 55 ± 2%
3 | C[C@@H](NC(=O)[C@@H](N)Cc1ccc(O)cc1)C(=O)NCC(=O)N(C)[C@@H](Cc1ccccc1)C(=O)NCCO [DAMGO, Tyr-D-Ala-Gly-(NMe)Phe-Gly-ol] |  |  |  |  |  |  | Bmax of [3H]DAMGO binding, controls (MOR; dorsal horn of control rats): 23.55 ± 4.36 fmol/mg; Bmax of [3H]DAMGO binding, diabetic rats (MOR; dorsal horn of diabetic rats): 13.11 ± 1.85 fmol/mg
4 | C=CC[N+]1(C)CC[C@]23c4c5ccc(O)c4O[C@H]2C(=O)CC[C@@]3(O)[C@H]1C5 (some centres unmarked) [NAL-M, Naloxone methiodide] |  |  |  |  |  |  | effect of co-administered NAL-M on the antiallodynic action of 14-O-MeM6SU and morphine ([4]; NAL-M 10.6 μmol/kg s.c., co-administered with s.c. 14-O-MeM6SU or morphine): failed to alter the antiallodynic action; effect of NAL-M alone ([4]; NAL-M alone, n = 5, data not shown): no effect
5 | CN1CC[C@]23c4c5ccc(O)c4O[C@H]2[C@@H](O)C=C[C@H]3[C@H]1C5 [Morphine, morphine hydrochloride] | 20692 nmol/kg | 6589 nmol/kg | ≥ 2500 nmol/kg | 30 min | produced antiallodynic effects | 40000 nmol/kg | ED30diabetic/ED30non-diabetic [1]: 7; effectiveness of morphine in doses up to 10 mg/kg (STZ treated animals): ineffectiveness
